Values joined by “and” are separate entries in the source; they are usually repeats but may differ in a detail not shown here. Equal values may be shown once. Read-outs that look alike come from different tables or passages of the source.
Columns and labels:
[1] = Plasma PK from sparse data, population PK analysis without PK modeling; format: in vivo, human; settings: 28 days
Procedure: A total of 21 patients in Part A were included in PKAS. […] The mean T1/2 of M1 ranged from 19.8 h to 21.8 h. For M2-2, its mean T1/2 was not able to estimate in the 450 mg QD and 600 mg QD cohorts, and 21.3 h in the 300 mg QD cohort. The MP ratio calculated based on AUCtau ranged from 6.0 to 9.1 for M1, and ranged from 4.1 to 5.7 for M2-2.

[2] = tested on: locally advanced or metastatic NSCLC harboring c-MET overexpression or MET exon 14 skipping mutation; format: in vivo, human
Procedure: Patients enrolled in this study were divided into two parts. […] Patients with pre-existing c-MET overexpression at hospital diagnosis were also included in Part A. In Part B, patients in the 400 mg bis in die (BID) dose cohort, blood and tissue samples were collected to perform NGS to determine the MET exon 14 skipping mutation. Patients harboring pre-existing MET exon 14 skipping mutation at hospital diagnosis were also enrolled into Part B. […] Statistical analyses were performed using SAS version 9.4 (SAS Institute, Cary, NC, USA). Age was expressed as median (range), and categorical variables were expressed as frequency (percentage). The 95% CIs of ORR and DCR were calculated using Clopper-Pearson method. […] No imputation method was performed for missing data.

[3] = Chinese patients with advanced NSCLC, even at 800 mg QD; cited from earlier work
[4] = Plasma PK after multiple doses for 28 days, Part A (PKAS), routine PK analysis; format: in vivo, human
Procedure: Serial peripheral blood samples were collected at pre-dose on Cycle 1 Day 8, Cycle 1 Day 15 and Cycle 1 Day 22 for the trough concentration (Ctrough) obtained during the dosing interval. […] After Cycle 1, the Ctrough was measured every 4 or 8 or 12 weeks. The whole blood (3 mL) was taken intravenously and placed in sodium heparin tubes, gently turned over 15 times, and centrifuged within 1 h (4 °C 3000 rpm for 10 min). Two portions of the centrifuged upper plasma should be transferred to 1.5 mL centrifuge tubes with identification labels and stored at -80 °C. The following PK parameters were assessed: time to maximum plasma concentration at steady state (Tmax,ss), overall body clearance at steady state for extravascular dosage (CLss/F), terminal half-life (T1/2), plasma Ctrough observed in Cycle 1 at steady state, total volume of drug distribution at steady state according to the terminal phase (Vz,ss/F), AUC over a dosing interval (AUCtau), ratio of metabolites to parent drug calculated based on AUCtau (MP ratio).
Statistical analyses were performed using SAS version 9.4 (SAS Institute, Cary, NC, USA). Age was expressed as median (range), and categorical variables were expressed as frequency (percentage). The 95% CIs of ORR and DCR were calculated using Clopper-Pearson method. The 95% CIs of PFS and OS were calculated using Brookmeyer-Crowley method. PK parameters were expressed as mean (standard deviation) or median (range), and analyzed using Phoenix version 8.0 (Certara, LP, Princeton, NJ, USA). No imputation method was performed for missing data.

O=C(Nc1ccc(Oc2ccnc3c2CCN3)c(F)c1)c1c[nH]cc(-c2ccc(F)cc2)c1=O
AUCtau, mean (SD) ([1]; 300 mg QD (n=4)): 7420.0 (3120.0) h×ng/mL
CLss/F, mean (SD) ([1]; 300 mg QD (n=4)): 46.2 (18.7) L/h
Cmax,ss, mean (SD) ([1]; 300 mg QD (n=4)): 601.0 (189.0) ng/mL
Cmin,ss, mean (SD) ([1]; 300 mg QD (n=4)): 89.1 (56.3) ng/mL
Ctrough, mean (SD) ([1]; 300 mg QD (n=4)): 94.1 (79.0) ng/mL
T1/2, mean (SD) ([1]; 300 mg QD (n=4)): 9.1 (1.7) h
Tmax,ss, mean (SD) ([1]; 300 mg QD (n=4)): 4.0 (2.0) h
Vz,ss/F, mean (SD) ([1]; 300 mg QD (n=4)): 685.0 (196.0) L
AUCtau, mean (SD) ([1]; 450 mg QD (n=5)): 6350.0 (2710.0) h×ng/mL
CLss/F, mean (SD) ([1]; 450 mg QD (n=5)): 77.9 (33.2) L/h
Cmax,ss, mean (SD) ([1]; 450 mg QD (n=5)): 470.0 (83.3) ng/mL
Cmin,ss, mean (SD) ([1]; 450 mg QD (n=5)): 151.0 (77.5) ng/mL
Ctrough, mean (SD) ([1]; 450 mg QD (n=5)): 167.0 (100.5) ng/mL
T1/2, mean (SD) ([1]; 450 mg QD (n=5)): 10.3 (NE) h
Tmax,ss, mean (SD) ([1]; 450 mg QD (n=5)): 5.1 (2.0) h
Vz,ss/F, mean (SD) ([1]; 450 mg QD (n=5)): 1500.0 (NE) L
AUCtau, mean (SD) ([1]; 600 mg QD (n=2)): 6980.0 (NE) h×ng/mL
CLss/F, mean (SD) ([1]; 600 mg QD (n=2)): 86.0 (NE) L/h
Cmax,ss, mean (SD) ([1]; 600 mg QD (n=2)): 758.0 (NE) ng/mL
Cmin,ss, mean (SD) ([1]; 600 mg QD (n=2)): 80.3 (NE) ng/mL
Ctrough, mean (SD) ([1]; 600 mg QD (n=2)): 201.1 (166.4) ng/mL
T1/2, mean (SD) ([1]; 600 mg QD (n=2)): 9.6 (NE) h
Tmax,ss, mean (SD) ([1]; 600 mg QD (n=2)): 3.0 (NE) h
Vz,ss/F, mean (SD) ([1]; 600 mg QD (n=2)): 1180.0 (NE) L
BOR CR ([2]; 300 mg QD (n=12)): 0 n (%)
BOR NE (patients not evaluable) ([2]; 300 mg QD (n=12)): 0 n (%)
BOR PD ([2]; 300 mg QD (n=12)): 7 (58.3) n (%)
BOR PR ([2]; 300 mg QD (n=12)): 0 n (%)
BOR SD ([2]; 300 mg QD (n=12)): 5 (41.7) n (%)
DCR (95% CI) ([2]; 300 mg QD (n=12)): 41.7% and 41.7 (15.2, 72.3) %
ORR (95% CI) ([2]; 300 mg QD (n=12)): 0 (0, 26.5) %
PFS, median (95% CI) ([2]; 300 mg QD (n=12)): 1.9 months and 1.9 (1.9, 5.6) months
BOR CR ([2]; 400 mg BID (n=4)): 0 n (%)
BOR PD ([2]; 400 mg BID (n=4)): 0 n (%)
BOR PR ([2]; 400 mg BID (n=4)): 0 n (%)
BOR CR ([2]; 450 mg QD (n=12)): 0 n (%)
BOR PD ([2]; 450 mg QD (n=12)): 6 (50.0) n (%)
BOR PR ([2]; 450 mg QD (n=12)): 0 n (%)
BOR SD ([2]; 450 mg QD (n=12)): 4 (33.3) n (%)
DCR (95% CI) ([2]; 450 mg QD (n=12)): 33.3% and 33.3 (9.9, 65.1) %
ORR (95% CI) ([2]; 450 mg QD (n=12)): 0 (0, 26.5) %
OS, median (95% CI) ([2]; 450 mg QD (n=12)): 9.3 months and 9.3 (2.6, NE) months
PFS, median (95% CI) ([2]; 450 mg QD (n=12)): 1.9 months and 1.9 (1.1, 3.8) months
BOR CR ([2]; 600 mg QD (n=10)): 0 n (%)
BOR PD ([2]; 600 mg QD (n=10)): 2 (20.0) n (%)
BOR SD ([2]; 600 mg QD (n=10)): 3 (30.0) n (%)
DCR (95% CI) ([2]; 600 mg QD (n=10)): 40.0% and 40.0 (12.2, 73.8) %
ORR (95% CI) ([2]; 600 mg QD (n=10)): 10.0 (0.3, 44.5) %
PFS, median (95% CI) ([2]; 600 mg QD (n=10)): 1.8 months and 1.8 (1.2, 3.9) months
ORR ([2]; Part A (n=34), c-MET overexpression): 2.9%
DCR (95% CI) ([2]; Part B, 400 mg BID (n=4)): 75.0% and 75.0 (19.4, 99.4) %
ORR (95% CI) ([2]; Part B, 400 mg BID (n=4)): 0% and 0 (0, 60.2) %
PFS, median (95% CI) ([2]; Part B, 400 mg BID (n=4)): 3.4 months and 3.4 (3.2, 3.7) months
BOR CR ([2]; Total (n=38)): 0 n (%)
BOR PD ([2]; Total (n=38)): 15 (39.5) n (%)
BOR SD ([2]; Total (n=38)): 15 (39.5%) n (%) and 15 (39.5) n (%)
DCR (95% CI) ([2]; Total (n=38)): 42.1% and 42.1 (26.3, 59.2) %
ORR (95% CI) ([2]; Total (n=38)): 2.6% and 2.6 (0.1, 13.8) %
OS, median (95% CI) ([2]; Total (n=38)): 10.3 months and 10.3 (7.3, NE) months
PFS, median (95% CI) ([2]; Total (n=38)): 1.9 months and 1.9 (1.9, 3.7) months
dose-limiting toxicity (DLT) [3]: No dose-limiting toxicity (DLT) occurred
AUCtau, mean (SD) ([4]; 300 mg QD (n=7), 28 days): 7680.0 (4120.0) h × ng/mL
CLss/F, mean (SD) ([4]; 300 mg QD (n=7), 28 days): 50.4 (25.6) L/h
Cmax,ss, mean (SD) ([4]; 300 mg QD (n=7), 28 days): 794.0 (370.0) ng/mL
Cmin,ss, mean (SD) ([4]; 300 mg QD (n=7), 28 days): 104.0 (49.0) ng/mL
Ctrough, mean (SD) ([4]; 300 mg QD (n=7), 28 days): 113.5 (55.0) ng/mL
T1/2, mean (SD) ([4]; 300 mg QD (n=7), 28 days): 11.2 (2.8) h
Tmax,ss, mean (SD) ([4]; 300 mg QD (n=7), 28 days): 3.9 (2.0) h
Vz,ss/F, mean (SD) ([4]; 300 mg QD (n=7), 28 days): 781.0 (357.0) L
AUCtau, mean (SD) ([4]; 450 mg QD (n=7), 28 days): 11,000.0 (5970.0) h × ng/mL
CLss/F, mean (SD) ([4]; 450 mg QD (n=7), 28 days): 57.6 (39.5) L/h
Cmax,ss, mean (SD) ([4]; 450 mg QD (n=7), 28 days): 932.0 (480.0) ng/mL
Cmin,ss, mean (SD) ([4]; 450 mg QD (n=7), 28 days): 168.0 (127.0) ng/mL
Ctrough, mean (SD) ([4]; 450 mg QD (n=7), 28 days): 184.1 (131.2) ng/mL
T1/2, mean (SD) ([4]; 450 mg QD (n=7), 28 days): 11.8 (4.8) h
Tmax,ss, mean (SD) ([4]; 450 mg QD (n=7), 28 days): 4.0 (1.0) h
Vz,ss/F, mean (SD) ([4]; 450 mg QD (n=7), 28 days): 1050.0 (974.0) L
AUCtau, mean (SD) ([4]; 600 mg QD (n=7), 28 days): 10,100.0 (5350.0) h × ng/mL
CLss/F, mean (SD) ([4]; 600 mg QD (n=7), 28 days): 83.2 (58.9) L/h
Cmax,ss, mean (SD) ([4]; 600 mg QD (n=7), 28 days): 788.0 (394.0) ng/mL
Cmin,ss, mean (SD) ([4]; 600 mg QD (n=7), 28 days): 157.0 (89.6) ng/mL
Ctrough, mean (SD) ([4]; 600 mg QD (n=7), 28 days): 203.9 (99.2) ng/mL
T1/2, mean (SD) ([4]; 600 mg QD (n=7), 28 days): 12.7 (4.8) h
Tmax,ss, mean (SD) ([4]; 600 mg QD (n=7), 28 days): 3.9 (2.0) h
Vz,ss/F, mean (SD) ([4]; 600 mg QD (n=7), 28 days): 1780.0 (2080.0) L
Ctrough, mean (SD) ([4]; Cycle 1 Day 8 (192 h), 300 mg QD (n=7)): 163.0 (241.5) ng/mL
Ctrough, mean (SD) ([4]; Cycle 1 Day 8 (192 h), 450 mg QD (n=7)): 178.1 (128.0) ng/mL
Ctrough, mean (SD) ([4]; Cycle 1 Day 8 (192 h), 600 mg QD (n=7)): 165.6 (66.6) ng/mL
Ctrough, mean (SD) ([4]; Cycle 1 Day 15 (360 h), 300 mg QD (n=7)): 161.5 (126.3) ng/mL
Ctrough, mean (SD) ([4]; Cycle 1 Day 15 (360 h), 450 mg QD (n=7)): 216.5 (111.8) ng/mL
Ctrough, mean (SD) ([4]; Cycle 1 Day 15 (360 h), 600 mg QD (n=7)): 188.7 (67.3) ng/mL
Ctrough, mean (SD) ([4]; Cycle 1 Day 22 (528 h), 300 mg QD (n=7)): 124.2 (126.2) ng/mL
Ctrough, mean (SD) ([4]; Cycle 1 Day 22 (528 h), 450 mg QD (n=7)): 236.3 (83.4) ng/mL
Ctrough, mean (SD) ([4]; Cycle 1 Day 22 (528 h), 600 mg QD (n=7)): 164.1 (65.7) ng/mL
median Tmax,ss ([4]; among 300, 450, 600 mg QD cohorts, 28 days): 4.0 h
time to steady state ([4]; continuous administration): seven

Reference: PMC10088252
